Reference: publication PMC6004562, “Discovery of Orally Bioavailable, Quinoline-Based Aldehyde Dehydrogenase 1A1 (ALDH1A1) Inhibitors with Potent Cellular Activity” (Journal of Medicinal Chemistry, 2018)
Read-outs that look alike come from different tables or passages of the source.

Tests used:
[1] = pharmacokinetics in CD-1 mice; assay type: in vivo; settings: male, plasma, CD-1 mouse; for Vd: read-out: Vss; for bioavailability: po 10 mg/kg vs iv 2 mg/kg
[2] = mouse, in vivo, po, 50 mg/kg
[3] = Figure 1, previously reported; cited from earlier work
[4] = Figure 1, previously reported; cited from earlier work; remark: listed apart in the source
[5] = pilot toxicity / tolerability study in CD-1 mice; settings: po 50 mg/kg, QD*5, 5 days observation
[6] = iv 2 mg/kg, observed at t = 5 min

| SMILES | AUC(0-inf) ([1]; iv 2 mg/kg) [ng·h/mL] | Cmax [1, 6] [ng/mL] | Vd ([1]; iv 2 mg/kg) [L/kg] | AUC(0-inf) ([1]; po 10 mg/kg) [ng·h/mL] | Cmax ([1]; po 10 mg/kg) [ng/mL] | bioavailability [1] [%] | tolerability [2] | solubility [3] [µg/mL] | RLM [4] [min] | tolerability [5] |
| --- | --- | --- | --- | --- | --- | --- | --- | --- | --- | --- |
| CS(=O)(=O)N1CCN(C(=O)c2cnc3ccc(Cl)cc3c2N2CCC(C#N)(c3ccccc3)CC2)CC1 [Compound 109] | 459 | 1100 | 1.39 | 720 | 471 | 31 |  |  |  |  |
| CS(=O)(=O)N1CCN(C(=O)c2cnc3ccc(F)cc3c2-c2ccc(C3(C#N)CC3)cc2)CC1 [Compound 91, 1-(4-(6-Fluoro-3-(4-(methylsulfonyl)piperazine-1-carbonyl)quinolin-4-yl)phenyl)cyclopropanecarbonitrile] |  |  |  |  |  |  | no significant weight loss or abnormal clinical signs and no mortality was observed |  |  |  |
| CC(C)CCn1c(CN2CCN(C(=O)C3CC3)CC2)nc2c1c(=O)n(C)c(=O)n2C [Compound 4] |  |  |  |  |  |  |  | > 62 | > 30 |  |
| CN(C)C(=O)N1CCN(C(=O)c2cnc3ccc(F)cc3c2-c2ccc(C3(C#N)CC3)cc2)CC1 [Compound 118] | 1410 | 1960 | 2.2 | 2140 | 1170 | 30 |  |  |  |  |
| CN(C)C(=O)N1CCN(C(=O)c2cnc3ccc(F)cc3c2N2CCC(C#N)(c3ccccc3)CC2)CC1 [Compound 108] | 661 | 1800 | 0.72 | 844 | 1110 | 30 |  |  |  |  |
| CS(=O)(=O)N1CCN(C(=O)c2cnc3ccc(F)cc3c2N2CCC(C#N)(c3ccccc3)CC2)CC1 [Compound 86, 1-(6-Fluoro-3-(4-(methylsulfonyl)piperazine-1-carbonyl)quinolin-4-yl)-4-phenylpiperidine-4-carbonitrile] |  |  |  |  |  |  |  |  |  | no significant weight loss or abnormal clinical signs and no mortality was observed |
| CS(=O)(=O)N1CCN(C(=O)c2cnc3ccc(Cl)cc3c2-c2ccc(C3(C#N)CC3)cc2)CC1 [Compound 119] | 1130 |  | 1.14 | 2760 | 1470 | 49 |  |  |  |  |
| N#CC1(c2ccccc2)CCN(c2c(C(=O)N3CCN(C(=O)C4CC4)CC3)cnc3ccc(F)cc23)CC1 [Compound 78] | 505 | 1500 | 1.2 | 227 | 215 | 9 |  |  |  |  |
